From patent US11752117B2, “Methods and compositions for diagnosing and treating glaucoma” (priority 2017, dated 2023)
“And” between values parts separate entries of the source, which are not always exact repeats. Identical values can stand only once.

Legend:
patients = assay: Adverse ocular effects of tolbutamide eye drops
From the text: Specifically, patients were monitored for discomfort, ocular pain, tearing, photophobia, erythema, swelling, discharge and scaling, palpebral conjunctival inflammation, bulbar conjunctival inflammation; limbal inflammation, corneal epithelial changes and focal stromal infiltrates. Symptoms were classified as 0=normal; 1=mild; 2=moderate; and 3=severe.

rabbits = assay: Effect of KATP channel blockers and openers on intraocular pressure in rabbits; format: in vivo; settings: 800 μg of blockers, within 1 hour
From the text: Tolbutamide, a well-known and world-wide clinically approved drug to treat Type II diabetes, was used as the prototype blocker of the KATP channel. […] Tolbutamide solution decreased IOP not only in glaucomatous patients, but also in patients with elevated IOP after cataract surgery.

[1] = biological target: T1, sulfonylurea receptor of RIN-m5F cells (Rattus norvegicus, UniProt Q09429); assay: 3H-glibenclamide displacement, RIN-m5F cells; format: binding; settings: compared with bovine TM cells
T1 construct: displacement of ^3H-glibenclamide by tolbutamide in bovine trabecular meshwork cells and RIN-m5F cells; host or cells: RIN-m5F rat insulinoma cells
T1 sequence (Q09429 whole entry): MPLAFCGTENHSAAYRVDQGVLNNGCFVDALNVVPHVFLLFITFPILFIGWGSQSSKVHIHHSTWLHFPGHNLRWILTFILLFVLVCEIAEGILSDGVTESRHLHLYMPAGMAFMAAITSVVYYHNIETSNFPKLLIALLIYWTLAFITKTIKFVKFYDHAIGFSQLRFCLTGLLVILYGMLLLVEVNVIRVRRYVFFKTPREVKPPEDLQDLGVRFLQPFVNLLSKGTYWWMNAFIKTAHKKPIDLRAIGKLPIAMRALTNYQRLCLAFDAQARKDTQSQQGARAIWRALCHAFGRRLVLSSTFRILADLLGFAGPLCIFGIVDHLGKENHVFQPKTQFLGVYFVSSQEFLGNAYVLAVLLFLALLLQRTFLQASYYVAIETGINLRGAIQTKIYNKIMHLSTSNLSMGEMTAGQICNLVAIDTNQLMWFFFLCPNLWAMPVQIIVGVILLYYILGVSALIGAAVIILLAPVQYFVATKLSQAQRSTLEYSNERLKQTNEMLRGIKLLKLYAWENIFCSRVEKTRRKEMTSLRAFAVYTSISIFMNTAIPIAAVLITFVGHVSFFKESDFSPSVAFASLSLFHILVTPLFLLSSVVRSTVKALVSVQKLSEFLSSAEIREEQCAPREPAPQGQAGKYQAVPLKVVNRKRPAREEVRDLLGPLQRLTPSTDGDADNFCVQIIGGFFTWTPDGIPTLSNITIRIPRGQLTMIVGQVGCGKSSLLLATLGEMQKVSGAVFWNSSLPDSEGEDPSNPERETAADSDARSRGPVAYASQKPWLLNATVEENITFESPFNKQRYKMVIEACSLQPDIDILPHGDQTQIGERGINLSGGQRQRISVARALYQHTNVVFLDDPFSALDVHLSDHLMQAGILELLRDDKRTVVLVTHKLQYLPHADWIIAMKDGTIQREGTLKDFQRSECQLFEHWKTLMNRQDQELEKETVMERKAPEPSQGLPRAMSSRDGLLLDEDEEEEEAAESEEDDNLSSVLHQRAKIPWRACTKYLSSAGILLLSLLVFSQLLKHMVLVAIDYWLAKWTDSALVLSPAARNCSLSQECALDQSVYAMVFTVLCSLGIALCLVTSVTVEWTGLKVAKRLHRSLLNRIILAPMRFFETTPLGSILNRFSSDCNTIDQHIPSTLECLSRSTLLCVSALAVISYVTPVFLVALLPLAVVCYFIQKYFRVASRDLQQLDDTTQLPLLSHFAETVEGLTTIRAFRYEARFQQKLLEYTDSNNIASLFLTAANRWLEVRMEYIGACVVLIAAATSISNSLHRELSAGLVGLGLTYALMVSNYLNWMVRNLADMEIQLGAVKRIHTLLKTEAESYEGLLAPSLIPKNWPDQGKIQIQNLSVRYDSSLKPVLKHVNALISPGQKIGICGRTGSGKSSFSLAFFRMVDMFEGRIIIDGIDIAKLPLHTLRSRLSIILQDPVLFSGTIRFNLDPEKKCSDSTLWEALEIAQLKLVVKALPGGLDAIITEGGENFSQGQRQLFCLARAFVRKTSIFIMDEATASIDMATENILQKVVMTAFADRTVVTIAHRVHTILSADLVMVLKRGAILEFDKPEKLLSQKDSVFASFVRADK
T1 sequence (P70673 whole entry partner): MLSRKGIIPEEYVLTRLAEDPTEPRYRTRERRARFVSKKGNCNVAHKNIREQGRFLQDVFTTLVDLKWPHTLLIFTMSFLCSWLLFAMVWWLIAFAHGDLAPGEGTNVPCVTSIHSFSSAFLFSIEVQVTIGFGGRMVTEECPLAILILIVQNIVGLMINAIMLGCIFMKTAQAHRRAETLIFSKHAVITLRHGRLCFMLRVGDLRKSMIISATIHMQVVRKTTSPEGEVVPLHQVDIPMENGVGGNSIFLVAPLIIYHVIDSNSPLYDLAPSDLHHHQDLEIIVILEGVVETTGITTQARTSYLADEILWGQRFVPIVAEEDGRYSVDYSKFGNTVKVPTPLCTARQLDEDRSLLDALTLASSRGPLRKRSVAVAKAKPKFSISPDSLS
From the text: (§1) FIG. 2 depicts, in accordance with embodiments herein, displacement of ^3H-glibenclamide bound to trabecular meshwork cells (green) and RIN-m5F cells (red) by tolbutamide.

[2] = tested on: patients with elevated IOP; assay: Effect of one drop of 0.4% tolbutamide on IOP in human subjects; format: in vivo; settings: for effect on IOP: glaucomatous patients and patients with elevated IOP after cataract surgery (lens extraction)
Protocol: a. Effect of 1 drop of 0.4% tolbutamide. Three patients with elevated TOP, due to exfoliative glaucoma, to POAG and to the increase in TOP that occurs in some patients following lens extraction, were treated with one drop of 0.4% tolbutamide solution. TOP was measured at “0” time and at one hour intervals for 5 hours (when possible) by a nurse while the patient was in the hospital.

[3] = tested on: normal cynomologus monkeys; assay: Effect of tolbutamide on IOP of normal cynomologus monkeys; format: in vivo; settings: for IOP 1 hour post-treatment OD(treated): ketamine anesthesia
Protocol: Effect of Tolbutamide on TOP of Normal Cynomologus Monkeys: Formulations of the KA channel inhibitor tolbutamidewere tested as a suspension and as a solution for its ability to lower intraocular pressure in normal cynomologus monkeys. For the suspension, 0.4% tolbutamide was prepared in NaCl/borate buffer (0.8 mg NaCl, 1.0 mg boric acid, pH 7.2, water to 1 ml; for the solution, 0.4% tolbutamide was solubilized in 0.25 M NaOH and added to 0.4% hypromellose (HPMC) and the pH adjusted to 6.7. Tonicity was adjusted to 300 mOSm with NaCl and preserved with 0.001% thimerosal. The suspension and solution were tested as follows: Monkeys were anesthetized with ketamine hydrochloride and the baseline IOP determined. One drop of drug was administered to the right eye and the IOP determined 1 hour later, while the animals were still under anesthesia; the left eye served as a control. Two animals for each treatment were used. The decrease in IOP in the untreated eye is the result of anesthesia.

[4] = tested on: ocular hypertensive patient; assay: Fluorophotometry of aqueous humor inflow and outflow facility; format: in vivo, human
Protocol: Thus, they investigated whether one drop of […] tolbutamide would affect aqueous dynamics using fluorophotometry to measure aqueous production and outflow.
Fluorophotometry. To define the mechanism of action of tolbutamide, measurements of aqueous dynamics were done on patient 2 (See FIG. 6). For this study TOP and rate of aqueous formation were measured at 9:00 A.M. The patient was asked to apply one drop of drug to the right eye at 9:15 A.M. and one at 10:00 P.M. for 3 days. On the morning of the fourth day TOP and rate of aqueous formation were again measured.
Facility of Outflow (C) was calculated after Goldman:
[formula] where IOPt is the intraocular pressure in mmHg at the time the rate of inflow is measured. Episcleral pressure for this patient was estimated at 9 mmHg.

[5] = tested on: sulfonylurea receptor in trabecular meshwork cells; assay: 3H-glibenclamide binding and displacement, bovine trabecular meshwork cells; settings: bovine TM cells, compared with RIN-m5F cells
Protocol: FIG. 1 depicts, in accordance with embodiments herein, binding of ^3H-glibenclamide to bovine trabecular meshwork cells (2.5×10^5 per 0.5 ml of reaction mixture) at various concentrations of ligand. Red: non-specific binding; green: specific binding. Shown is mean±SD.
as §1
Non-specific binding was determined as the residual binding in the presence of 20 μM non-labeled glibenclamide. After 2 hrs incubation, ^3H-bound glibenclamide was separated from free ^3H-glibenclamide on Whatman GF/F filters soaked in incubation buffer. Specific binding as calculated as the difference between binding in the absence and presence of non-labeled […] glibenclamide (FIG. 1).

[6] = after 3 days, one drop of 0.5% solution to the eye twice daily

CCCCNC(=O)NS(=O)(=O)c1ccc(C)cc1 [Tolbutamide, tolbutamide]
severe symptoms of ocular toxicity (patients; all patients, any time during the study): free of severe symptoms
symptoms of ocular toxicity, classification (patients; drops to the eye, all cases): 0-1
effect on intraocular pressure (rabbits): decreased IOP
kinetics of displacement of 3H-glibenclamide by tolbutamide [1]: same kinetics
IOP spike that occurs following cataract surgery ([2]; 0.4%): prevents the IOP spike
lowering of intraocular pressure ([2]; 0.4%, primary open angle glaucoma and exfoliative glaucoma patients): 25-50%
IOP ([2]; Patient 1 Exfoliative Glaucoma of OD, OD, 2 hrs after one drop 0.4% solution, pre-treatment 48): 44 mm of Hg
IOP ([2]; Patient 1 Exfoliative Glaucoma of OD, OD, 3 hrs after one drop 0.4% solution, pre-treatment 48): 32 mm of Hg
IOP ([2]; Patient 1 Exfoliative Glaucoma of OD, OD, 4 hrs after one drop 0.4% solution, pre-treatment 48): 30 mm of Hg
IOP ([2]; Patient 1 Exfoliative Glaucoma of OD, OD, 5 hrs after one drop 0.4% solution, pre-treatment 48): 30 mm of Hg
IOP ([2]; Patient 1 Exfoliative Glaucoma of OD, OS, 2 hrs, pre-treatment 20): 18 mm of Hg
IOP ([2]; Patient 1 Exfoliative Glaucoma of OD, OS, 3 hrs, pre-treatment 20): 14 mm of Hg
IOP ([2]; Patient 1 Exfoliative Glaucoma of OD, OS, 4 hrs, pre-treatment 20): 14 mm of Hg
IOP ([2]; Patient 1 Exfoliative Glaucoma of OD, OS, 5 hrs, pre-treatment 20): 14 mm of Hg
IOP ([2]; Patient 2 Primary Open Angle Glaucoma, OD, 1 hr after one drop 0.4% solution, pre-treatment 34): 30 mm of Hg
IOP ([2]; Patient 2 Primary Open Angle Glaucoma, OD, 3 hrs, pre-treatment 34): 26 mm of Hg
IOP ([2]; Patient 2 Primary Open Angle Glaucoma, OD, 4 hrs, pre-treatment 34): 22 mm of Hg
IOP ([2]; Patient 2 Primary Open Angle Glaucoma, OD, 5 hrs, pre-treatment 34): 22 mm of Hg
IOP ([2]; Patient 2 Primary Open Angle Glaucoma, OS, 1 hr, pre-treatment 32): 27 mm of Hg
IOP ([2]; Patient 2 Primary Open Angle Glaucoma, OS, 3 hrs, pre-treatment 32): 22 mm of Hg
IOP ([2]; Patient 2 Primary Open Angle Glaucoma, OS, 4 hrs, pre-treatment 32): 20 mm of Hg
IOP ([2]; Patient 2 Primary Open Angle Glaucoma, OS, 5 hrs, pre-treatment 32): 20 mm of Hg
IOP ([2]; Patient 3 IOP Spike after Lens Extraction, OD, 2 hrs after one drop 0.4% solution, pre-treatment 30): 20 mm of Hg
effect on IOP [2]: decreased IOP
effect on IOP ([2]; listed as tolbutamide): decrease TOP significantly
IOP 1 hour post-treatment OD(treated) ([3]; 0.4% solution in 0.4% HPMC pH 6.7, one drop right eye): 22 mmHg and 17 mmHg
IOP 1 hour post-treatment OD(treated) ([3]; 0.4% suspension in NaCl/borate buffer, one drop right eye): 15 mmHg and 18 mmHg
effect on IOP ([3]; cynomolgous monkeys, 500 μg, short-term 1-hour studies): decreased TOP
increase of aqueous production ([4]; 0.4%): 150%
increase of outflow via the trabecular meshwork-Schlemm's canal complex ([4]; 0.4%): 350%
net outflow increase ([4]; 0.4%): 200%
increase of aqueous formation [4, 6]: approximately 150%
increase of outflow via the trabecular meshwork/Schlemm's canal [4, 6]: 350%
Inflow OD Post-treatment ([4]; patient 2, one drop right eye twice daily for 3 days, morning of fourth day, Pre-Treatment 1.9): 3.0 µL/min
IOP OD Post-treatment ([4]; patient 2, one drop right eye twice daily for 3 days, morning of fourth day, Pre-Treatment 22): 15 mmHg
Outflow Facility OD Post-treatment ([4]; patient 2, one drop right eye twice daily for 3 days, calculated after Goldman, episcleral pressure 9 mmHg, Pre-Treatment 0.146): 0.50 μl/min/mmHg
kinetics of displacement of 3H-glibenclamide by tolbutamide [5]: same kinetics
